In the experiment the target is T1, Nav1.7 (or SCN9A) channel (Homo sapiens, UniProt Q15858).
T1 construct: expressed in transfected cells
Kind of experiment: Nav1.7 (hSCN9A) electrophysiology assay, PatchXpress platform. It is filed as cell-based. The following applies: estimated IC50 from single point electrophysiology data, HEK cells stably expressing hSCN9A, held at V1/2 of inactivation, read-out: Nav1.7 EIC50. Here is the method: The ability of the compounds of formula (I) to block the Nav1.7 (or SCN9A) channel were measured using the assay described below.
Human Embryonic Kidney (HEK) cells were transfected with an hSCN9A construct using lipofectamine reagent (Invitrogen), using standard techniques. Cells stably expressing the hSCN9A constructs were identified by their resistance to G-418 (400 μg/ml). Clones were screened for expression using the whole-cell voltage-clamp technique.
HEK cells stably transfected with hSCN9A were maintained in DMEM medium supplemented with 10% heat-inactivated fetal bovine serum and 400 μg/ml G-418 in an incubator at 37° C. with a humidified atmosphere of 10% CO2. For HTS, cells were harvested from flasks by trypsinization and replated in an appropriate multi-well plate (typically 96 or 384 wells/plate) such that confluence would be achieved within 24 hours of plating. For electrophysiological studies, cells were removed from the culture flask by brief trypsinization and re-plated at low density onto glass cover slips. Cells were typically used for electrophysiological experiments within 24 to 72 hours after plating.
Cover slips containing HEK cells expressing hSCN9A were placed in a bath on the stage of an inverted microscope and perfused (approximately 1 ml/minutes) with extracellular solution of the following composition: 138 mM NaCl, 2 mM CaCl2, 5.4 mM KCl, 1 mM MgCl2, 10 mM glucose, and 10 mM HEPES, pH 7.4, with NaOH. […] The osmolarity of the extracellular and intracellular solutions was 300 mOsm/kg and 295 mOsm/kg, respectively. All recordings were made at room temperature (22-24° C.) using AXOPATCH 200B amplifiers and PCLAMP software (Axon Instruments, Burlingame, Calif.).
hSCN9A currents in HEK cells were measured using the whole-cell configuration of the patch-clamp technique (Hamill et al., 1981). Uncompensated series resistance was typically 2 to 5 mega ohms and >85% series resistance compensation was routinely achieved. […] Current records were acquired at 20 to 50 KHz and filtered at 5 to 10 KHz.
HEK cells stably transfected with hSCN9A were viewed under Hoffman contrast optics and placed in front of an array of flow pipes emitting either control or compound-containing extracellular solutions. All compounds were dissolved in dimethyl sulfoxide to make 10 mM stock solutions, which were then diluted into extracellular solution to attain the final concentrations desired. […] The voltage-dependence of inactivation was determined by applying a series of depolarizing prepulses (8 sec long in 10 mV increments) from a negative holding potential. The voltage was then immediately stepped to 0 mV to assess the magnitude of the sodium current. Currents elicited at 0 mV were plotted as a function of prepulse potential to allow estimation of the voltage at which 50% of the channels were inactivated (midpoint of inactivation or V1/2). Compounds were tested for their ability to inhibit hSCN9A sodium channels by activating the channel with a 20 msec voltage step to 0 mV following an 8 second conditioning prepulse to the empirically determined V1/2. Compound effect (% inhibition) was determined by difference in current amplitude before and after application of test compounds. […] Inhibition values <20% and >80% were excluded from the calculation.
Electrophysiological assays were conducted with PatchXpress 7000 hardware and associated software (Molecular Devices Corp). All assay buffers and solutions were identical to those used in conventional whole-cell voltage clamp experiments described above. hSCN9A cells were grown as above to 50%-80% confluency and harvested by trypsinization. Trypsinized cells were washed and resuspended in extracellular buffer at a concentration of 1×10^6 cells/ml. The onboard liquid handling facility of the PatchXpress was used for dispensing cells and application of test compounds.

Where a name gives a salt, the structure may show the parent alone.

T1 sequence (Q15858 whole entry): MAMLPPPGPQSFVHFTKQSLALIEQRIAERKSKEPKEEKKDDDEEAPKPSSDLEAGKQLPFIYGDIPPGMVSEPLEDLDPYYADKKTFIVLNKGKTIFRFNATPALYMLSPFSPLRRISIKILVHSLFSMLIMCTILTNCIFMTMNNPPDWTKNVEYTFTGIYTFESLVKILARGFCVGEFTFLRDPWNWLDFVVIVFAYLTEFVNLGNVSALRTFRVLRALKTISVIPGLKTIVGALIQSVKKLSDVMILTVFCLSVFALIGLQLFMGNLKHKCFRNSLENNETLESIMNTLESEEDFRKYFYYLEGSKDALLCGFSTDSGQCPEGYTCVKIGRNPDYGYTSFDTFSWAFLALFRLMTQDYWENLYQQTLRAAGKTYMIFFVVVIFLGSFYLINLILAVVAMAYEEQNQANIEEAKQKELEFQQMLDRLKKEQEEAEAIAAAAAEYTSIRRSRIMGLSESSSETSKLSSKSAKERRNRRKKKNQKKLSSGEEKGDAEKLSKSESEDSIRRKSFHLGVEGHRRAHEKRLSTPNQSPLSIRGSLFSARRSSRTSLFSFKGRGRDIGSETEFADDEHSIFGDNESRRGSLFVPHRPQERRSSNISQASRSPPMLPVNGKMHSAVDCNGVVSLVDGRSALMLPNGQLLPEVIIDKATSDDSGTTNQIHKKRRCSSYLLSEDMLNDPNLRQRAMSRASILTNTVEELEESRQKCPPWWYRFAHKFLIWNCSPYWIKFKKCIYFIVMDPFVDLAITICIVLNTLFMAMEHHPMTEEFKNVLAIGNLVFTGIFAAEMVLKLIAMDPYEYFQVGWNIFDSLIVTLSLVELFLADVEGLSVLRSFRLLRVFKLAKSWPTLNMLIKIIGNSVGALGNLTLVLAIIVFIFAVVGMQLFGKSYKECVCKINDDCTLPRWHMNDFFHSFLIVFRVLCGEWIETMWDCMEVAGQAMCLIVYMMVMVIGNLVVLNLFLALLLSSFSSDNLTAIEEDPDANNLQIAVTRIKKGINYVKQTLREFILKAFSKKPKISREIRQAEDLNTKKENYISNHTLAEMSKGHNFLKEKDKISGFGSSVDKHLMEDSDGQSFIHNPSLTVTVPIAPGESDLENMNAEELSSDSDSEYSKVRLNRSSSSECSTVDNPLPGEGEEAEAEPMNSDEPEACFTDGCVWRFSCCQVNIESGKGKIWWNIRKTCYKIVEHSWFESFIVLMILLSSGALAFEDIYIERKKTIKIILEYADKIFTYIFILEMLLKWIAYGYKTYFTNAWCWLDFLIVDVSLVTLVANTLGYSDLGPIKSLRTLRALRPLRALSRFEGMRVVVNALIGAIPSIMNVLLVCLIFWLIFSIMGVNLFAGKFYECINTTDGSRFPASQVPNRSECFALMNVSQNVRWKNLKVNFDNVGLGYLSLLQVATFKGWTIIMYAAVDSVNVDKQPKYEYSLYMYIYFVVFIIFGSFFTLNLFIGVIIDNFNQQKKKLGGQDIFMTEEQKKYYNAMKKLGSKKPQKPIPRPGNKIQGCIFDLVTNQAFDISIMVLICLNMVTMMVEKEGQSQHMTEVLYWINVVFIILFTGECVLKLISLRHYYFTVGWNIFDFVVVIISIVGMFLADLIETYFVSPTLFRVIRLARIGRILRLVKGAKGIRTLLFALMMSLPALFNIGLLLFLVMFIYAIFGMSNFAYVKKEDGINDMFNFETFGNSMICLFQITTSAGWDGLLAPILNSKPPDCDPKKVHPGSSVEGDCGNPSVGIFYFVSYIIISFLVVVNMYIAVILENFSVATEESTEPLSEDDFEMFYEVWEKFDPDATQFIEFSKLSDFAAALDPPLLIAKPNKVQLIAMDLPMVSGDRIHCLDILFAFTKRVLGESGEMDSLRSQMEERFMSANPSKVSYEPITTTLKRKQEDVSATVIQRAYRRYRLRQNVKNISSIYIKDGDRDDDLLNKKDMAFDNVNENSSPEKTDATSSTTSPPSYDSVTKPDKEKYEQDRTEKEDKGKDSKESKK

In the case of `CS(=O)(=O)NC(=O)c1cc(Cl)c(COc2ccc(Cl)c(Cl)c2)cc1F` [Example 1, 5-Chloro-4-[(3,4-dichlorophenoxy)methyl]-2-fluoro-N-(methylsulfonyl)benzamide], the IC50 was 9.5 nM.
As to `CS(=O)(=O)NC(=O)c1cc(F)c(COc2ccc(C(F)(F)F)c(Cl)c2)cc1F` [Example 2, 4-{[3-Chloro-4-(trifluoromethyl)phenoxy]methyl}-2,5-difluoro-N-(methylsulfonyl)benzamide], the IC50 was 64 nM.
The figure for `CS(=O)(=O)NC(=O)c1ccc(OCc2ccc(Cl)c(Cl)c2)cc1` [Example 3] is 290 nM; for `Cn1nc(C(F)(F)F)cc1-c1ccc(OCc2ccc(C(=O)NS(C)(=O)=O)cc2)cc1` [Example 4, N-(Methylsulfonyl)-4-({4-[1-methyl-3-(trifluoromethyl)-1H-pyrazol-5-yl]phenoxy}methyl)benzamide diethylamine salt] it is 1200 nM; for `CS(=O)(=O)NC(=O)c1ccc(OCc2cccc3ccccc23)c(C#N)c1` [Example 5, 3-Cyano-N-(methylsulfonyl)-4-(1-naphthylmethoxy)benzamide] it is 1700 nM.
The figure for `CS(=O)(=O)NC(=O)c1ccc(OCc2ccccc2OC(F)(F)F)c(Cl)c1` [Example 6, 3-Chloro-N-(methylsulfonyl)-4-{[2-(trifluoromethoxy)benzyl]oxy}benzamide] is 1300 nM; for `COc1cccc(OCc2ccc(C(=O)NS(C)(=O)=O)cc2)c1` [Example 8, 4-[(3-Methoxyphenoxy)methyl]-Nethylsulfonyl)benzamide diethylamine salt] it is 6900 nM; for `CS(=O)(=O)NC(=O)c1cc(F)c(OCc2ccc(Cl)c(Cl)c2)cc1F` [Example 9, 4-[(3,4-Dichlorobenzyl)oxy]-2,5-difluoro-N-(methylsulfonyl)benzamide] it is 670 nM.
The figure for `CS(=O)(=O)NC(=O)c1cc(F)c(OCc2ccc(C(F)(F)F)c(Cl)c2)cc1F` [Example 10, 4-(3-Chloro-4-(trifluoromethyl)benzyloxy)-2,5-difluoro-N-(methylsulfonyl)benzamide] is 1500 nM; for `COc1cc(OCc2ccc(Cl)c(Cl)c2)ccc1C(=O)NS(C)(=O)=O` [Example 12, 4-[(3,4-Dichlorobenzyl)oxy]-2-methoxy-N-(methylsulfonyl)benzamide] it is 12000 nM.
`COc1ccccc1OCc1cc(F)c(C(=O)NS(C)(=O)=O)cc1F` [Example 14, 2,5-Difluoro-4-((2-methoxyphenoxy)methyl)-N-(methylsulfonyl)benzamide]: the IC50 was 8100 nM.
As for `COc1cc(Cl)ccc1OCc1cc(F)c(C(=O)NS(C)(=O)=O)cc1F` [Example 15, 4-((4-Chloro-2-methoxyphenoxy)methyl)-2,5-difluoro-N-(methylsulfonyl)benzamide Diethylamine salt], the IC50 was 1700 nM.
The figure for `CS(=O)(=O)NC(=O)c1ccc(COc2cccc(Cl)c2)cc1` [Example 16, 4-((3-Chlorophenoxy)methyl)-N-(methylsulfonyl)benzamide Diethylamine salt] is 760 nM.
The figure for `CS(=O)(=O)NC(=O)c1ccc(COc2ccc(C#N)cc2)cc1` [Example 17, 4-((4-Cyanophenoxy)methyl)-N-(methylsulfonyl)benzamide] is 8400 nM; for `CS(=O)(=O)NC(=O)c1ccc(COc2ccc(Cl)cc2)cc1` [Example 18, 4-((4-Chlorophenoxy)methyl)-N-(methylsulfonyl)benzamide Diethylamine salt] it is 930 nM; for `COc1cc(C(=O)NS(C)(=O)=O)ccc1COc1ccc(Cl)c(Cl)c1` [Example 19, 4-((3,4-Dichlorophenoxy)methyl)-3-methoxy-N-(methylsulfonyl)benzamide] it is 58 nM.
For `CS(=O)(=O)NC(=O)c1ccc(OCc2ccccc2)cc1` [Example 20, 4-(Benzyloxy)-N-(methylsulfonyl)benzamide Diethylamine salt], the IC50 was 2400 nM.
The figure for `CS(=O)(=O)NC(=O)c1ccc(OCc2cccc(Br)c2)cc1` [Example 21, 4-(3-Bromobenzyloxy)-N-(methylsulfonyl)benzamide] is 710 nM.
The figure for `Cc1nccn1-c1ccc(COc2ccc(C(=O)NS(C)(=O)=O)cc2)cc1` [Example 22, 4-(4-(2-methyl-1H-imidazol-1-yl)benzyloxy)-N-(methylsulfonyl)benzamide] is > 3000 nM; for `CCC(C)S(=O)(=O)NC(=O)c1cc(F)c(COc2ccc(Cl)c(Cl)c2)cc1F` (stereo not shown) [Example 23, N-(sec-Butylsulfonyl)-4-((3,4-dichlorophenoxy)methyl)-2,5-difluorobenzamide] it is 380 nM.
The figure for `CS(=O)(=O)NC(=O)c1ccc(COc2ccc(Cl)cc2Cl)cc1` [Example 24, 4-((2,4-Dichlorophenoxy)methyl)-N-(methylsulfonyl)benzamide Diethylamine salt] is 780 nM; for `CCc1ccc(OCc2ccc(C(=O)NS(C)(=O)=O)cc2)cc1` [Example 25, 4-((4-Ethylphenoxy)methyl)-N-(methylsulfonyl)benzamide Diethylamine salt] it is 720 nM; for `CS(=O)(=O)NC(=O)c1ccc(COc2ccc(C(F)(F)F)cc2-c2ccnnc2)cc1` [Example 26, N-(methylsulfonyl)-4-{[2-pyridazin-4-yl-4-(trifluoromethyl)phenoxy]methyl}benzamide] it is 78 nM.
With `CS(=O)(=O)NC(=O)c1ccc(COc2ccc(Cl)c(C(F)(F)F)c2)cc1` [Example 27, 4-{[4-Chloro-3-(trifluoromethyl)phenoxy]methyl}-N-(methylsulfonyl)benzamide], the IC50 is 380 nM.
The figure for `CS(=O)(=O)NC(=O)c1ccc(COc2ccc(Cl)c(Cl)c2)cc1` [Example 28, 4-[(3,4-Dichlorophenoxy)methyl]-N-(methylsulfonyl)benzamide] is 58 nM.
For the compound `CS(=O)(=O)NC(=O)c1ccc(COc2ccc(Cl)c(Cl)c2)c(Cl)c1` [Example 29, 3-Chloro-4-((3,4-dichlorophenoxy)methyl)-N-(methylsulfonyl)benzamide Diethylamine salt], the IC50 was 86 nM.
With `COc1cc(COc2ccc(Cl)c(Cl)c2)ccc1C(=O)NS(C)(=O)=O` [Example 30, 4-[(3,4-Dichlorophenoxy)methyl]-2-methoxy-N-(methylsulfonyl)benzamide], the IC50 is 1900 nM.
The figure for `COc1ccccc1OCc1ccc(C(=O)NS(C)(=O)=O)cc1` [Example 34, 4-[(2-Methoxyphenoxy)methyl]-N-(methylsulfonyl)benzamide] is 8500 nM.
As to `CS(=O)(=O)NC(=O)c1ccc(COc2cccc(C3CCNCC3)c2)cc1` [Example 35, N-(Methylsulfonyl)-4-[(3-piperidin-4-ylphenoxy)methyl]benzamide], the IC50 was > 3000 nM.
The figure for `CS(=O)(=O)NC(=O)c1ccc(COc2ccc(C3CCNCC3)cc2)cc1` [Example 36, N-(methylsulfonyl)-4-[(4-piperidin-4-ylphenoxy)methyl]benzamide diethylamine salt] is > 3000 nM; for `Cn1nccc1-c1ccc(OCc2ccc(C(=O)NS(C)(=O)=O)cc2)cc1` [Example 37, 4-{[4-(1-Methyl-1H-pyrazol-5-yl)phenoxy]methyl}-N-(methylsulfonyl)benzamide diethylamine salt] it is > 3000 nM.
